# How the values were obtained:
# [1] = molecular target: aldose reductase (Homo sapiens, UniProt P15121); conditions: literature report; cited from earlier work
# [2] = molecular target: aldose reductase (Bos taurus, UniProt P16116); assay: % inhibition in vitro at 10^-7 M (aldose reductase inhibition); format: biochemical
# [3] = tested on: dulcitol accumulation in the diaphragm; assay: % lowering dulcitol accumulation in vivo, diaphragm (D), galactosemic rats; set-up: species or system rat (Sprague-Dawley); conditions: 4 days
# Description: (§1) Such experiments are exemplified hereinbelow after the listing of the following general comments pertaining to these experiments:
# (§2) (a) Four or more groups of six male rates, 50-70 g, Sprague-Dawley strain, were used. The first group, the control group, was fed a mixture of laboratory chow (rodent laboratory chow, Purina) and glucose at 20% (w/w %) concentration. The untreated galactosemic group was fed a similar diet in which galactose is substituted for glucose. The third group was fed a diet prepared by mixing a given amount of the test compound with the galactose containing diet. The concentration of galactose in the diet of the treated groups was the same as that for the untreated galactosemic group.
# (§3) Only two minor reagent changes were made: (a) The rinsing mixture was an aqueous 5% (w/v) trichloroacetic acid solution and (b) the stock solution was prepared by dissolving 25 mg of dulcitol in 100 ml of an aqueous trichloroacetic acid solution. [N.B.: For each experiment the average value found in the tissue from rats fed the glucose diet was subtracted from the individual values found in the corresponding rat tissue to obtain the amount of polyol accumulated.]
# (§4) The figures under L, N and D represent the percentage decrease of dulcitol accumulation in the tissues of the lens, sciatic nerve and diaphragm, respectively, for treated rats as compares to untreated rats.
# [4] = tested on: dulcitol accumulation in the lens; assay: % lowering dulcitol accumulation in vivo, lens (L), galactosemic rats; set-up: species or system rat (Sprague-Dawley); conditions: 4 days
# Description: as §1, §2
# (§5) (b) After four days, the animals were killed by decapitation. The eyeballs were removed and punctured with a razor blade; the freed lenses were rolled gently on filter paper and weighed. The sciatic nerves were dissected as completely as possible and weighed. Both tissues were frozen and can be kept up to two weeks before being analyzed for dulcitol.
# as §3, §4
# [5] = tested on: dulcitol accumulation; assay: galactosemic rats, dulcitol accumulation, overall comparison in words; format: in vivo, rat (Sprague-Dawley)
# Description: The aldose reductase inhibiting property of the compounds of this invention and the utilization of the compounds in preventing, diminishing and alleviating diabetic complications are demonstrable in experiments using galactosemic rats, see Dvornik et at., cited above. Such experiments are exemplified hereinbelow after the listing of the following general comments pertaining to these experiments:
# as §2, §5
# as §3, with “(c) The polyol determination was performed by a modification of the procedure of M. Kraml and L. Cosyns, Clin. Biochem., 2,373 (1969). Only” for “Only”
# as §4
# [6] = 24.5 mg/kg/day in galactose diet
smiles,measurement,setting,value
"O=C(O)CN1C(=O)c2cccc3cccc(c23)C1=O [1,3-Dioxo-1H-benz[de]isoquinoline-2(3H)-acetic acid]",inhibition of aldose reductase,[1],effective inhibitor of aldose reductase
"COc1ccc2c(C(=S)N(C)CC(=O)O)cccc2c1C(F)(F)C(F)(F)F [Compound 1, N-[[6-methoxy-5-(pentafluoroethyl)-1-naphthalenyl]thioxomethyl]-N-methylglycine]",inhibition at 0.1 µM,[2],71%
same,"% lowering dulcitol accumulation in vivo, D",[3]; [6],93%
same,"% lowering dulcitol accumulation in vivo, L",[4]; [6],29%
"COc1ccc2c(C(=O)N(C)CC(=O)O)cccc2c1C(F)(F)C(F)(F)F [Compound 2, N-[[6-Methoxy-5-(pentafluoroethyl)-1-naphthalenyl]carbonyl]-N-methylglycine]",inhibition at 0.1 µM,[2],56%
same,"% lowering dulcitol accumulation in vivo, D",[3]; 29 mg/kg/day in galactose diet,68%
"COc1ccc2c(C(=S)N(C)CC(=O)O)cccc2c1C(F)(F)C(F)(F)C(F)(F)F [Compound 3, N-[[5-(heptafluoropropyl)-6-methoxy-1-naphthalenyl]thioxomethyl]-N-methylglycine]",activity compared with tolrestat at 4 mg/kg/day,[5]; 5 mg/kg/day,superior to tolrestat
same,activity compared with tolrestat at 11 mg/kg/day,[5]; 5 mg/kg/day,approaches the activity of tolrestat
same,activity relative to tolrestat,[5]; about twice as active as tolrestat,about twice
same,inhibition at 0.1 µM,[2],75%
same,"% lowering dulcitol accumulation in vivo, D",[3]; 5 mg/kg/day in galactose diet,76%
same,"% lowering dulcitol accumulation in vivo, L",[4]; 5 mg/kg/day in galactose diet,20%
"COc1ccc2c(C(=O)N(C)CC(=O)O)cccc2c1C(F)(F)C(F)(F)C(F)(F)F [Compound 4, N-[[5-(heptafluoropropyl)-6-methoxy-1-naphthalenyl]carbonyl]-N-methylglycine]",activity compared with compound No. 7 (tolrestat) at 11 mg/kg/day,[5]; 10 mg/kg/day,comparable results
same,inhibition at 0.1 µM,[2],63%
same,"% lowering dulcitol accumulation in vivo, D",[3]; 10 mg/kg/day in galactose diet,38%
same,"% lowering dulcitol accumulation in vivo, L",[4]; 10 mg/kg/day in galactose diet,19%
"COc1ccc2c(C(=S)N(C)CC(=O)O)cccc2c1C(F)(F)C(F)(F)C(F)(F)C(F)(F)C(F)(F)C(F)(F)F [Compound 5, N-[[6-Methoxy-5-(tridecafluorohexyl)-1-naphthalenyl]thioxomethyl]-N-methylglycine]",inhibition at 0.1 µM,[2],40%
same,"% lowering dulcitol accumulation in vivo, D",[3]; 26 mg/kg/day in galactose diet,51%
same,"% lowering dulcitol accumulation in vivo, L",[4]; 26 mg/kg/day in galactose diet,0%
"COc1ccc2c(C(=O)N(C)CC(=O)O)cccc2c1C(F)(F)C(F)(F)C(F)(F)C(F)(F)C(F)(F)C(F)(F)F [Compound 6, N--[[5-(Tridecafluorohexyl)-6-methoxy-1-naphthalenyl]carbonyl]-N--methylglycine]",inhibition at 0.1 µM,[2],47%
same,"% lowering dulcitol accumulation in vivo, D",[3]; 25 mg/kg/day in galactose diet,0%
same,"% lowering dulcitol accumulation in vivo, L",[4]; 25 mg/kg/day in galactose diet,0%
"COc1ccc2c(C(=S)N(C)CC(=O)O)cccc2c1C(F)(F)F [Compound 7, N--[[5-(Trifluoromethyl)-6-methoxy-1-naphthalenyl]thioxomethyl]-N--methylglycine, reference compound]","% lowering dulcitol accumulation in vivo, D",[3]; 11 mg/kg/day in galactose diet,89%
"COc1ccc2c(C(=O)N(C)CC(=O)O)cccc2c1C(F)(F)F [Compound 8, N--[ [5-(Trifluoromethyl)-6-methoxy-1-naphthalenyl]carbonyl]-N--methylglycine, reference compound]",inhibition at 0.1 µM,[2],57%
same,"% lowering dulcitol accumulation in vivo, D",[3]; 10 mg/kg/day in galactose diet,20%
same,"% lowering dulcitol accumulation in vivo, L",[4]; 10 mg/kg/day in galactose diet,0%
"O=C1NC(=O)[C@@]2(CCOc3ccc(F)cc32)N1 [sorbinol, (S)-6-Fluoro-2,3-dihydrospiro(4H-1-benzopyran-4,4'-imidazolidine)-2',5'-dione]",inhibition of aldose reductase,[1],aldose reductase inhibiting properties

# Reference: US4604406A, “N-[6-methoxy-5-(perfluoroalkyl)-1-naphtholyl]-N-methylglycines and their thionaphthoyl analogs” (Ayerst, McKenna & Harrison, Inc., priority 1984, dated 1986)
